In US11903994B2, “Dosing regimens” (Apellis Pharmaceuticals, Inc., priority 2015, dated 2024):
Non-standard residues stand in square brackets, D forms with d. Trp(5-F) = N[C@@H](Cc1c[nH]c2ccc(F)cc12)C(=O)O; Trp(6-F) = N[C@@H](Cc1c[nH]c2cc(F)ccc12)C(=O)O; Bpa = N[C@@H](Cc1ccc(C(=O)c2ccccc2)cc1)C(=O)O; 1Nal = N[C@@H](Cc1cccc2ccccc12)C(=O)O; 2Nal = N[C@@H](Cc1ccc2ccccc2c1)C(=O)O; Igl = N[C@H](C(=O)O)C1Cc2ccccc2C1

What was measured:
[1] = Inhalation study, repeated dosing; type: in vivo, dog; settings: 25 mg/kg/d, 7 day repeated dose, inhaled CA28
Method: (§1) Inhalation studies of single dose or repeated dosing were conducted in dog and cynomolgus monkey. […] These doses were 25 mg/kg/d in a 7 day repeated dose study in the dog, 80 mg/kg in a single dose study in the monkey, and 30 mg/kg/day in a 14 day repeated dose in the monkey.

[2] = Inhalation studies, single and repeated dosing; type: in vivo, cynomolgus monkey; settings: inhaled CA28
Method: as §1

[3] = Phase 1 single and multiple ascending dose trial, inhaled (nebulized), healthy volunteers; type: in vivo, human
Method: In the single ascending dose part of the trial, 16 subjects were enrolled in four cohorts of four subjects each.
Four subjects were enrolled in the first cohort of the multiple ascending dose part of the trial. These subjects were to receive 14 consecutive days of treatment with a 60 mg/day dose of the drug. […] The trial was paused and subsequently resumed, with subjects receiving 30 mg/day. […] The trial was then terminated.

complement activation = settings: relative to compstatin amidated at the C-terminus; published data; cited from earlier work

Row | Molecule | Activity over compstatin (complement activation) | also measured
1 | CC[C@H](C)[C@H](NC(C)=O)C(=O)N[C@H]1CSSC[C@@H](C(=O)N[C@H](C(N)=O)[C@@H](C)O)NC(=O)[C@H](CCCNC(=N)N)NC(=O)[C@H](Cc2cnc[nH]2)NC(=O)[C@H](C)NC(=O)CNC(=O)[C@H](Cc2c[nH]c3ccccc23)NC(=O)[C@H](CC(=O)O)NC(=O)[C@H](CCC(N)=O)NC(=O)[C@H](Cc2cn(C)c3ccccc23)NC(=O)[C@H](C(C)C)NC1=O [CA28] |  | findings at the highest inhaled dose tested [1]: no drug-related findings; findings at the highest inhaled dose tested ([2]; 30 mg/kg/day, 14 day repeated dose): no drug-related findings; findings at the highest inhaled dose tested ([2]; 80 mg/kg, single dose): no drug-related findings; adverse event possibly related to the pharmacology of the drug ([3]; inhaled CA28 30 mg/day, after 10 days of treatment): Another subject developed signs and symptoms consistent with a potential bacterial infection; adverse event possibly related to the pharmacology of the drug ([3]; inhaled CA28 60 mg/day, following nine days of treatment): one subject developed signs and symptoms consistent with a potential bacterial infection
2 | Ac-ICV(1-Nal)QDWGAHRCT-COOH (Ac-ICV[1Nal]QDWGAHRCT-OH; not fully specified (bridges); printed as Ac-ICV(1-Nal)QDWGAHRCT-COOH; cysteine pairing not given here) [Ac V4(1-Nal)/H9A-OH] | 30xmore | 
3 | Ac-ICV(2-Nal)QDWGAHRCT-CONH2 (Ac-ICV[2Nal]QDWGAHRCT-NH2; not fully specified (bridges); printed as Ac-ICV(2-Nal)QDWGAHRCT-CONH2; cysteine pairing not given here) [Ac-V4(2-Nal)/H9A] | 99xmore | 
4 | Ac-ICV(2-Nal)QDWGAHRCT-COOH (Ac-ICV[2Nal]QDWGAHRCT-OH; not fully specified (bridges); printed as Ac-ICV(2-Nal)QDWGAHRCT-COOH; cysteine pairing not given here) [Ac V4(2-Nal)/H9A-OH] | 38xmore | 
5 | Ac-ICV(2-lgl)QDWGAHRCT-CONH2 (Ac-ICV[Igl]QDWGAHRCT-NH2; not fully specified (bridges); printed as Ac-ICV(2-lgl)QDWGAHRCT-CONH2; cysteine pairing not given here) [Ac-V42lgl/H9A] | 39xmore | 
6 | Ac-ICV(2-lgl)QDWGAHRCT-COOH (Ac-ICV[Igl]QDWGAHRCT-OH; not fully specified (bridges); printed as Ac-ICV(2-lgl)QDWGAHRCT-COOH; cysteine pairing not given here) [Ac-V42lgl/H9A-OH] | 37xmore | 
7 | Ac-ICV(5-methyl-W)QDWGAHRCT-CONH2 [Ac-V4(5-MeW)/H9A] | 67xmore | 
8 | Ac-ICV(5fW)QDWGAHRCT-CONH2 [Ac-V4(5fW)/H9A] | 31xmore | 
9 | Ac-ICV(Bpa)QDWGAHRCT-CONH2 (Ac-ICV[Bpa]QDWGAHRCT-NH2; not fully specified (bridges); printed as Ac-ICV(Bpa)QDWGAHRCT-CONH2; cysteine pairing not given here) [Ac-V4(Bpa)/H9A] | 86xmore | 
10 | Ac-ICV(Bpa)QDWGAHRCT-COOH (Ac-ICV[Bpa]QDWGAHRCT-OH; not fully specified (bridges); printed as Ac-ICV(Bpa)QDWGAHRCT-COOH; cysteine pairing not given here) [Ac-V4(Bpa)/H9A-OH] | 49xmore | 
11 | Ac-ICVDhtQDWGAHRCT-COOH [Ac-V4Dht/H9A-OH] | 5xmore | 
12 | Ac-ICVVQDWGHHRCT-CONH2 [Ac-compstatin] | 3xmore | 
13 | Ac-ICVWQD(5fW)GAHRCT-CONH2 [Ac-V4W/W7(5fW)/H9A] | 121xmore | 
14 | Ac-ICVWQDWGAHRCT-CONH2 [Ac-V4W/H9A] | 45xmore | 
15 | Ac-ICVWQDWGAHRCdT-COOH [Ac-V4W/H9A/T13dT-OH] | 55xmore | 
16 | Ac-ICVYQDWGAHRCT-CONH2 [Ac-V4Y/H9A] | 14xmore | 
17 | H-GICV(5fW)QD(5fW)GAHRCTN-COOH (H-GICV[Trp(5-F)]QD[Trp(5-F)]GAHRCTN-OH; not fully specified (bridges); cysteine pairing not given here) [G/V4(5f-W)/W7(5fW)/H9A + N-OH] | 112xmore | 
18 | H-GICV(6fW)QD(6fW)GAHRCTN-COOH (H-GICV[Trp(6-F)]QD[Trp(6-F)]GAHRCTN-OH; not fully specified (bridges); cysteine pairing not given here) [+G/V4(6fW)/W7(6fW)H9A + N-OH] | 126xmore | 
